Laboratory results published in patent publication US20100311827A1, “Chlorogenic acid derivatives and their use as anti-fungal agents” (priority 2006, published 2010).
Converted amounts (≈) assume the structure as drawn. Where two headings read alike, the source gives them in different places.

Assays:
[1] = test system: Cryptococcus neoformans (ATCC32045); assay: Broth dilution anti-fungal susceptibility (NCCLS M27-A2), MIC; format: cell-based; settings: Table 1, MICs read at 80% inhibition, 35° C., 48 to 72 hours, tested 0.12 to 64 μg/ml
Procedure: (§1) The anti-fungal activity of the compounds according to the invention were evaluated against Candida albicans (ATCC90028), Cryptococcus neoformans (ATCC32045), and Aspergillus fumigatus (ATCC13073) according to NCCLS guidelines (NCCLS reference method for broth dilution anti-fungal susceptibility testing of yeasts; approved standard-second edition, M27-A2, National Committee for Clinical Laboratory Standards, Villanova, Pa. 2003; and NCCLS reference method for broth dilution anti-fungal susceptibility testing of filamentous fungi; approved standard, M38-A, National Committee for Clinical Laboratory Standards, Villanova, Pa. 2002).
(§2) The medium required for the evaluation of anti-fungal activity was prepared as follows. RPMI 1640 broth+MOPS, pH adjusted and filter sterilized. Sabouraud Dextrose Agar (SDA) plates were used for growing fungi.
(§3) All test or candidate compounds were prepared as 5 mg/ml stock solutions in DMSO and further diluted according to the NCCLS guidelines with sterile water or appropriate diluent. A working stock of 256 μg/ml was used to prepare 1:2 serial dilutions in 96-well plates.
(§4) The inoculums of fungi were prepared by making a direct sterile water suspension of colonies/spores from SDA plates. 0.1% Tween 20 was used for A. fumigatus for better dispersal of spores in suspension. For C. albicans and C. neoformans overnight cultures were used. A. fumigatus required longer incubation. Each fungal suspension was adjusted to read between 70 and 75% transmittance at 530 nm (0.5 McFarland Standard). These suspensions were further diluted 1/1000 in appropriate broth for inoculating the 96-well plates.
(§5) All plates were incubated at 35° C. for the following times: 18 hours to 24 hours for C. albicans, 48 hours for A. fumigatus, and 48 to 72 hours for C. neoformans.

[2] = test system: Candida albicans (ATCC90028); assay: as above; format: cell-based; settings: for MIC: Candida albicans, MICs read at 80% inhibition
Procedure: as §1, §2, §3, §4, §5

[3] = test system: Candida krusei ATCC6258; assay: Broth dilution anti-fungal susceptibility, MIC (as in Example 24); format: cell-based
[4] = test system: Aspergillus fumigatus (ATCC13073); assay: Broth dilution anti-fungal susceptibility of filamentous fungi (NCCLS M38-A), MIC; format: cell-based; settings: Table 1, MICs read at 80% inhibition, 35° C., 48 hours, tested 0.12 to 64 μg/ml
Procedure: as §1, §2, §3, §4, §5

[5] = test system: brine shrimp; format: in vivo
Procedure: The general in vitro toxicity of these compounds can be tested using the Brine Shrimp Lethality assay, as described in Mclaughlin, J. L. in Methods in Plant Biochemistry. Ed. K. Hostettmann, Academic Press, London, 1991; Vol. 6, pp. 1-32. Typically, candidate compounds are diluted in seawater to a suitable concentration and added to second instar larvae of Artemia salina. After a suitable period of time, for example 24 hours, the survivors are counted. In vitro acute toxicity testing of a compound of Formula I can also be performed using mammalian cell lines (see, for example, Ekwall, B., Ann. N.Y. Acad. Sci., (1983) 407:64-77). Selection of an appropriate cell line is dependent on the potential application of the candidate compound and can be readily determined by one skilled in the art.
To test the general toxicity of these compounds, Brine Shrimp Lethality assay was carried out according to Mclaughlin, J. L. in Methods in Plant Biochemistry. Ed. K. Hostettmann, Academic Press, London, 1991; Vol. 6, pp. 1-32. The compounds were tested at 100 μg/ml.

[6] = comparison in words, from Table 3

## CCCCCCCCOc1ccc(NC(=O)C(NC(=O)C2(O)CC(O)C(O)C(OC(=O)/C=C/c3ccc(O)c(O)c3)C2)C(C)O)cc1 (stereo not drawn) [Compound 12]
[1]
  MIC: 2 µg/mL (≈ 3.04 µM)
[2]; ATCC90028, Table 1, 35° C., 18 to 24 hours, tested 0.12 to 64 μg/ml
  MIC: 8 µg/mL (≈ 12.1 µM)
[2]; ATCC90028, Table 3 (Example 26, additional testing), 0.12 to 64 μg/ml, read-out: MIC C. albicans
  MIC: 4 µg/mL (≈ 6.07 µM)
[2]; [6]
  inhibitory activity against C. albicans compared to chlorogenic acid: more potent inhibitory activity
[3]; Pichia kudriavzevii, ATCC6258, Table 3 (Example 26), MICs read at 80% inhibition, 0.12 to 64 μg/ml, read-out: MIC C. krusei
  MIC: 2 µg/mL (≈ 3.04 µM)
[3]; [6]
  inhibitory activity against C. krusei compared to chlorogenic acid: more potent inhibitory activity
[4]
  MIC: > 64 µg/mL
[5]; at 100 μg/ml
  % BL (brine shrimp lethality): 12.5%
[5]; comparison in words, from Table 2
  toxicity on brine shrimp compared to chlorogenic acid: less toxicity
